# Patent US6890946B2, “Use of parthenolide to inhibit cancer” (Indiana University Research and Technology Corporation, priority 1999, dated 2005)
# Peptide text beside a SMILES is read from it. * marks the point of attachment. Cbz = O=C(OCc1ccccc1)*
# Legend:
# [1] = test system: NF-κB DNA binding in HUVECs; test: electromobility gel shift assay of NF-κB DNA binding in HUVECs; settings: three hours, bFGF 50 ng/mL, VEGF 100 ng/mL, rhuMAb VEGF 10 mg/mL
# Description: HUVECs were plated on 100 mm plates and harvested in an exponential growth phase. […] The mixture was then electrophoresed. Specific NF-κB binding to DNA was identified by the presence of a signal seen at autoradiography. The protein-DNA complex was slower to migrate whereas unbound DNA and protein migrated off the gel.
# [2] = test system: NF-κB DNA binding activity in MDA-MB-231 cells; test: EMSA of NF-κB DNA binding activity in MDA-MB-231 cells; settings: parthenolide 1, 2 and 5 μM for 3 h
# Description: (§2) Electrophoretic Mobility Shift Assays (EMSAs). […] Cells were collected by trypsinization, washed in phosphate-buffered saline and resuspended in 125 μl of 2 μgs/ml RNase and 300 μl of propidium iodide containing buffer (50 μg/ml propidium iodide, 1 mg/ml sodium citrate, 0.03% NP40). The amount of propidium iodide incorporated was determined by FAScan analysis and the cell cycle distribution was determined using ModFit computer Software. Cell cycle distribution analysis was performed in a single blinded manner. Only diploid cells were considered while calculating the percentage of cells at each phase of cell cycle. • H. Statistical Analysis.
# breast cancer = settings: cited from earlier work
# HBL100 cells [3] = test: MTS cell survival assay, HBL100 cells; assay type: cell-based; settings: Homo sapiens, HBL-100, HBL100, 18 h, single agent, read-out: Half-maximal growth-inhibitory concentration (IC50)
# MDA-MB-231 cells = test: MTS cell survival assay, MDA-MB-231 cells; assay type: cell-based
# Text: (§1) The invention will be further described by reference to the following detailed examples wherein the following materials and methods were employed: • A. Breast Cancer Cell Lines. […] Electrophoretic Mobility Shift Assays (EMSAs). […] Antibodies for supershift assays were purchased from Santa Cruz Biotechnology (CA) or Upstate Biotechnology (NY). • D. Western Blotting. […] IκBα and Mn-SOD antibodies were purchased from Santa Cruz Biotechnology (CA) and Upstate Biotechnology, respectively. • E. Northern Blotting and RNase Protection. […] Twenty μgs of RNA were subjected to RNase protection using the hAPO-5 probe (PharMingen, San Diego, Calif.) as described by the manufacturers. • F. Drug Treatment, Cell Death Assays, Apoptosis Assay and PARP Cleavage. […] Apoptosis was measured by a histone-ELISA (Roche Diagnostics, Indianapolis, Ind.). […] Histone-DNA complexes in the supernatant were detected by ELISA. For the PARP cleavage assay, 5×10^5 cells were exposed to the indicated drugs for 24 h. […] Cells were collected by trypsinization, washed in phosphate-buffered saline and resuspended in 125 μl of 2 μgs/ml RNase and 300 μl of propidium iodide containing buffer (50 μg/ml propidium iodide, 1 mg/ml sodium citrate, 0.03% NP40). The amount of propidium iodide incorporated was determined by FAScan analysis and the cell cycle distribution was determined using ModFit computer Software. […]
# HBL100 cells [4] = test: cell cycle distribution analysis, HBL100 cells; assay type: cell-based; settings: HBL100 (data not shown)
# Text: as §1
# [5] = test system: PARP cleavage in HBL100 cells; test: PARP cleavage Western blot, HBL100 cells; assay type: cell-based; settings: HBL100, 24 h, single agents: paclitaxel 1 nM and 5 nM, parthenolide 0.1 μM and 0.5 μM
# Text: as §1
# LxSN11 cells [6] = test: cell death ELISA (apoptosis), LxSN11 cells; settings: 18 h of paclitaxel treatment, culture supernatants
# Description: Apoptosis was measured by ELISA.
# (§3) To avoid loss of hypodiploid or other damaged cells during processing, the assay was performed with cell culture supernatants.
# IκBαSR10 cells = test: cell death ELISA (apoptosis), IκBαSR10 cells; settings: 18 h of paclitaxel treatment, culture supernatants
# Description: Apoptosis was measured by ELISA.
# as §3
# p65−/− fibroblasts = test: cell cycle progression of p65−/− fibroblasts; settings: for p65−/− G0/G1 / p65−/− S / p65−/− G2/M: 18 h
# Description: as §2
# wild type fibroblasts = test: cell cycle progression of wild type fibroblasts; settings: for Wild type G0/G1 / Wild type G2/M / Wild type S: 18 h
# Description: as §2
# LxSN11 cells [7] = test: flow cytometry cell cycle distribution, LxSN11 cells; settings: paclitaxel increased from 3 nM to 5 nM
# Description: (§4) Apoptosis was measured by a histone-ELISA (Roche Diagnostics, Indianapolis, Ind.). […] Histone-DNA complexes in the supernatant were detected by ELISA. For the PARP cleavage assay, 5×10^5 cells were exposed to the indicated drugs for 24 h. […] Cells were collected by trypsinization, washed in phosphate-buffered saline and resuspended in 125 μl of 2 μgs/ml RNase and 300 μl of propidium iodide containing buffer (50 μg/ml propidium iodide, 1 mg/ml sodium citrate, 0.03% NP40). The amount of propidium iodide incorporated was determined by FAScan analysis and the cell cycle distribution was determined using ModFit computer Software. Cell cycle distribution analysis was performed in a single blinded manner. Only diploid cells were considered while calculating the percentage of cells at each phase of cell cycle. • H. Statistical Analysis. In synergy experiments, dose response curves for single agents were generated first.
# (§5) Only diploid cells were considered while calculating the percentage of cells in different phases of the cell cycle.
# IκBαSR6 cells = test: flow cytometry cell cycle distribution, IκBαSR6 cells; settings: 5 nM paclitaxel, IκBαSR6, diploid cells only
# Description: as §4, §5
# LxSN11 and IκBαSR cells = test: flow cytometry cell cycle analysis, all cell types (LxSN11 and IκBαSR clones of MDA-MB-231); settings: 3 nM paclitaxel
# Description: as §4, §5
molecule,measurement,setting,value
bFGF: basic Fibroblast Growth Factor (R & D Systems) added to stimulate HUVECs,effect on NF-κB DNA binding,[1],induced greater DNA binding than VEGF
VEGF,effect on NF-κB DNA binding,[1],did not alter baseline NF-κB DNA binding
O=C(O[C@@H]1Cc2c(O)cc(O)cc2O[C@@H]1c1cc(O)c(O)c(O)c1)c1cc(O)c(O)c(O)c1 [epigallocatechin gallate],ability to inhibit NF-κB DNA binding activity,[2],"Only parthenolide, MG132 and Bay 11-7085 inhibited"
CC(=O)N[C@@H](CS)C(=O)O [N-acetyl cysteine],ability to inhibit NF-κB DNA binding activity,[2],"Only parthenolide, MG132 and Bay 11-7085 inhibited"
CC(C)C[C@@H](C=O)NC(=O)[C@H](CC(C)C)NC(=O)[C@H](CC(C)C)NC(=O)OCc1ccccc1 [MG132] (Cbz-Leu-Leu-Leu-aldehyde),ability to inhibit NF-κB DNA binding activity,[2],inhibited
CC(C)(C)c1ccc(S(=O)(=O)/C=C/C#N)cc1 [Bay 11-7085],ability to inhibit NF-κB DNA binding activity,[2],inhibited
"rhuMAb VEGF: anti-angiogenic agent provided by Genentech, used in the electromobility gel shift assay",patients with tumor regression,breast cancer,20%
same,effect on NF-κB DNA binding,[1],did not alter NF-κB DNA binding
CC(=O)O[C@H]1C(=O)[C@@]2(C)[C@H]([C@H](OC(=O)c3ccccc3)[C@]3(O)C[C@H](OC(=O)[C@H](O)[C@@H](NC(=O)c4ccccc4)c4ccccc4)C(C)=C1C3(C)C)[C@]1(OC(C)=O)CO[C@@H]1C[C@@H]2O [paclitaxel],IC50,HBL100 cells [3],10 nM
same,IC50,"MDA-MB-231 cells; Homo sapiens, MDA-MB-231, 18 h, MTS, single agent",> 30 nM
same,cells killed,"MDA-MB-231 cells; MDA-MB-231, 30 nM or higher concentrations of paclitaxel",30%
same,G2/M arrest,HBL100 cells [4],arrested at G2/M
same,PARP cleavage product,[5],No PARP cleavage product was observed
same,apoptosis by cell death ELISA,LxSN11 cells [6],only a marginal increase in apoptosis
same,apoptosis by cell death ELISA,IκBαSR10 cells,substantial increase in apoptotic death
same,effect on cell cycle distribution,p65−/− fibroblasts; p65−/− fibroblasts,had no effect
same,p65−/− G0/G1,p65−/− fibroblasts; paclitaxel 1 nM,47 ± 2
same,p65−/− S,p65−/− fibroblasts; paclitaxel 1 nM,53 ± 1
same,p65−/− G0/G1,p65−/− fibroblasts; paclitaxel 3 nM,39 ± 6
same,p65−/− G2/M,p65−/− fibroblasts; paclitaxel 3 nM,1
same,p65−/− S,p65−/− fibroblasts; paclitaxel 3 nM,61 ± 7
same,p65−/− G0/G1,p65−/− fibroblasts; paclitaxel 5 nM,47 ± 2
same,p65−/− G2/M,p65−/− fibroblasts; paclitaxel 5 nM,14
same,p65−/− S,p65−/− fibroblasts; paclitaxel 5 nM,46 ± 6
same,p65−/− G0/G1,p65−/− fibroblasts; paclitaxel 10 nM,47 ± 2
same,p65−/− G2/M,p65−/− fibroblasts; paclitaxel 10 nM,6 ± 4
same,p65−/− S,p65−/− fibroblasts; paclitaxel 10 nM,48 ± 6
same,Wild type G0/G1,wild type fibroblasts; paclitaxel 1 nM,68 ± 4
same,Wild type G2/M,wild type fibroblasts; paclitaxel 1 nM,17 ± 8
same,Wild type S,wild type fibroblasts; paclitaxel 1 nM,20 ± 4
same,Wild type G0/G1,wild type fibroblasts; paclitaxel 3 nM,70 ± 3
same,Wild type G2/M,wild type fibroblasts; paclitaxel 3 nM,14 ± 5
same,Wild type S,wild type fibroblasts; paclitaxel 3 nM,16 ± 1
same,Wild type G0/G1,wild type fibroblasts; paclitaxel 5 nM,71 ± 3
same,Wild type G2/M,wild type fibroblasts; paclitaxel 5 nM,17 ± 6
same,Wild type S,wild type fibroblasts; paclitaxel 5 nM,16 ± 4
same,Wild type G0/G1,wild type fibroblasts; paclitaxel 10 nM,73 ± 2
same,Wild type G2/M,wild type fibroblasts; paclitaxel 10 nM,16 ± 6
same,Wild type S,wild type fibroblasts; paclitaxel 10 nM,15 ± 2
same,effect on cell cycle distribution,wild type fibroblasts; wild type fibroblasts,had no effect
same,cell cycle distribution pattern,LxSN11 cells [7],did not alter the cell cycle distribution pattern
same,percentage of cells at G2/M,IκBαSR6 cells,70.37±14.9%
same,hypodiploid cells,LxSN11 and IκBαSR cells,approximately 30%
COc1cc(/C=C/C(=O)CC(=O)/C=C/c2ccc(O)c(OC)c2)ccc1O [Curcumin],ability to inhibit NF-κB DNA binding activity,[2],"Only parthenolide, MG132 and Bay 11-7085 inhibited"
CC(=O)CCCCn1c(=O)c2c(ncn2C)n(C)c1=O [pentoxyphylline],ability to inhibit NF-κB DNA binding activity,[2],"Only parthenolide, MG132 and Bay 11-7085 inhibited"
